Results on 29 molecules are retold here after patent US20250051338A1, “TYK2 DEGRADERS AND USES THEREOF” (Kymera Therapeutics, Inc., priority 2021, published 2025).

One may read the DC50 as the concentration giving 50% degradation.

Molecules are shown by their SMILES.

Common to all, as to type: cell-based
Test [1] addresses T1, TYK2 (Homo sapiens, UniProt P29597). The experiment in a line: TYK2 degradation MSD assay in human PBMC cells. Also on record: endogenous in cells; host or cells: human PBMC. The following applies: 4 to 24 hours incubation, read-out: TYK2 MSD DC50 rating in human PBMC. Put shortly:
(§1)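 MSD electrochemiluminescence readout of residual TYK2 in RIPA lysates after 4–24 h compound exposure at 37° C. Dosing: 9 concentrations, 1:3 steps, top 1 to 10 μM. DC50 fitted by four-parameter inhibitor vs. response regression.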

The target in test [2] is T1, TYK2. The experiment in a line: TYK2 degradation MSD assay in EBV-B cells. Further details: endogenous in cells; host or cells: EBV-B cells. Put shortly: as §1
In test [3] the target is T1, TYK2. Nature of the test: TYK2 degradation MSD assay in OCI-LY10 cells. Further details: endogenous in cells; host or cells: EBV-B cells. The settings on record: 4 to 24 hours incubation, read-out: TYK2 MSD DC50 rating in OCI-LY10. Put shortly:
as §1

[4] abbreviates: 4 to 24 hours incubation, read-out: TYK2 MSD DC50 rating in EBV-B.

T1 sequence (P29597 whole entry): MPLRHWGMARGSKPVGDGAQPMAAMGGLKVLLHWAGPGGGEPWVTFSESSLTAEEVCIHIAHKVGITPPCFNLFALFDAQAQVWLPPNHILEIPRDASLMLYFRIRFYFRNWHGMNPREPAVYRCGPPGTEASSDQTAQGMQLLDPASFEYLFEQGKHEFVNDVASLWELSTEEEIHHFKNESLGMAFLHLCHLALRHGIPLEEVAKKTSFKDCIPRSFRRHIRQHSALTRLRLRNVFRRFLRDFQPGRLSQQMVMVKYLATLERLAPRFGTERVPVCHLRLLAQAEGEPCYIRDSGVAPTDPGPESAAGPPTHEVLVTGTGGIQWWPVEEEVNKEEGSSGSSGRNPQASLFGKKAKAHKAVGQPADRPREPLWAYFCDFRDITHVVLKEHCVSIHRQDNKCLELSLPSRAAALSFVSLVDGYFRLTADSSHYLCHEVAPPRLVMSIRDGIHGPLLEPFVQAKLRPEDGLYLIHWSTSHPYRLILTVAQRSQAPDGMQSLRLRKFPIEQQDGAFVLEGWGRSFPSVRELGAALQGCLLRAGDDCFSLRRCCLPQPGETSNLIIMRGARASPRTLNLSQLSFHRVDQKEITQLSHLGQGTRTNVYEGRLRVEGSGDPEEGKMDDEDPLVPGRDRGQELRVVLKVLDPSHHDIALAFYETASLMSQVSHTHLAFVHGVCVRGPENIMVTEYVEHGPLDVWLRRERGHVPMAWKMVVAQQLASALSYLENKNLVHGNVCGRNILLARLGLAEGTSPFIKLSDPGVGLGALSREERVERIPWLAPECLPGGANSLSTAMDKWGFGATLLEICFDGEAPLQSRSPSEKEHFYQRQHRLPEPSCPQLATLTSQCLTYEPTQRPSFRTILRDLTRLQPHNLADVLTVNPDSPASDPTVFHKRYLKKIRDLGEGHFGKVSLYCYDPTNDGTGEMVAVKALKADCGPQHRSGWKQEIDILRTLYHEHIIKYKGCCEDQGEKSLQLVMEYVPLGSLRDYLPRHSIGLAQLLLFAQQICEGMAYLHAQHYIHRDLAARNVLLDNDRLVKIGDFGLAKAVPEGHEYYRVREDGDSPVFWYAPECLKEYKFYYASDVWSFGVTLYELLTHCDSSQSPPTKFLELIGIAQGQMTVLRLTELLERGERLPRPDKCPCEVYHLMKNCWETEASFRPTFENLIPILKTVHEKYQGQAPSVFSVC

In the case of `Cn1c(=O)n(C2CCC(=O)NC2=O)c2ccc(CCCCNC(=O)c3ccc(-n4cccc(Nc5ccc6ncc(C(=O)N[C@@H]7C[C@@H]7F)n6n5)c4=O)nc3)cc21` (stereo partly drawn) [Example K325], the DC50 on TYK2 [1], at TYK2 [2] (setting [4]) and at TYK2 [3] was more than 100 nM in each case.
For `Cn1c(=O)n(C2CCC(=O)NC2=O)c2ccc(CCCCNC(=O)c3ccccc3Nc3ccc4ncc(C(=O)N[C@@H]5C[C@@H]5F)n4n3)cc21` (stereo partly drawn) [Example K326], the DC50 on TYK2 [1], on TYK2 [2] (setting [4]) and on TYK2 [3] was more than 100 nM each time.
Take `Cn1c(=O)n(C2CCC(=O)NC2=O)c2ccc(CCCCC(=O)N3CCC(n4cc(-c5ccc6ncc(C(=O)N[C@@H]7C[C@@H]7F)n6n5)cn4)CC3)cc21` (stereo partly drawn) [Example K327]: the DC50 at TYK2 [1], at TYK2 [2] (setting [4]) and at TYK2 [3] was more than 100 nM in each case.
Turning to `Cn1c(=O)n(C2CCC(=O)NC2=O)c2ccc(CCCCNC(=O)c3cccc(Nc4ccc5ncc(C(=O)N[C@@H]6C[C@@H]6F)n5n4)c3)cc21` (stereo partly drawn) [Example K328], the DC50 at TYK2 [1] is more than 100 nM; at TYK2 [2] (read-out: TYK2 MSD DC50 rating in EBV-B, 4 to 24 hours incubation) it was more than 100 nM; on TYK2 [3], more than 100 nM.
In the case of `CNc1cc(Nc2cccn(C3CCN(C(=O)NCCCCc4ccc5c(c4)n(C)c(=O)n5C4CCC(=O)NC4=O)CC3)c2=O)nc2c(C(=O)N[C@@H]3C[C@@H]3F)cnn12` (stereo partly drawn) [Example K330], the DC50 at TYK2 [1], at TYK2 [2] (setting [4]) and on TYK2 [3] was more than 100 nM in each case.
Take `CNc1cc(Nc2cccn(-c3ccc(C(=O)N4CCC(CC#Cc5cccc6c5n(C)c(=O)n6C5CCC(=O)NC5=O)CC4)cn3)c2=O)nn2c(C(=O)N[C@@H]3C[C@@H]3F)cnc12` (stereo partly drawn) [Example K331]: the values for the DC50 at TYK2 [1], at TYK2 [2] (setting [4]) and on TYK2 [3] were less than 1 nM, more than 100 nM and more than 100 nM, respectively.
`Cn1c(=O)n(C2CCC(=O)NC2=O)c2ccc(CN3CCC(CNc4cc(Nc5cccn(-c6ccccn6)c5=O)nn5c(C(=O)N[C@@H]6C[C@@H]6F)cnc45)CC3)cc21` (stereo partly drawn) [Example K360]: the half-maximal degradation concentration (DC50) on TYK2 [1], on TYK2 [2] (setting [4]) and at TYK2 [3] was more than 100 nM each time.
`CNc1cc(-c2cnn(C3CCC(CN(C)C4CCN(c5ccc6c(c5)n(C)c(=O)n6C5CCC(=O)NC5=O)CC4)CC3)c2)nn2c(C(=O)N[C@@H]3C[C@@H]3F)cnc12` (stereo partly drawn) [Example K361]: the DC50 at TYK2 [1], on TYK2 [2] (setting [4]) and on TYK2 [3] was more than 100 nM throughout.
Regarding `CNc1cc(-c2cnn(C3CCC(CN4CC5(CCN(c6cccc7c6n(C)c(=O)n7C6CCC(=O)NC6=O)CC5)C4)CC3)c2)nn2c(C(=O)NC3C[C@@H]3F)cnc12` (stereo partly drawn) [Example K362], the DC50 at TYK2 [1] was less than 1 nM; on TYK2 [2] (setting [4]), more than 100 nM; at TYK2 [3], more than 100 nM.
Regarding `CNc1cc(-c2cnn(C3CCC(CN4CC5(CCN(c6ccc7c(c6)n(C)c(=O)n7C6CCC(=O)NC6=O)CC5)C4)CC3)c2)nn2c(C(=O)N[C@@H]3C[C@@H]3F)cnc12` (stereo partly drawn) [Example K363], the DC50 at TYK2 [1] was less than 1 nM; on TYK2 [2] (setting [4]) it was more than 100 nM; at TYK2 [3], more than 100 nM.
For `CNc1cc(-c2cnn(C3CCC(CN4CCC(CN(C)c5ccc6c(c5)n(C)c(=O)n6C5CCC(=O)NC5=O)CC4)CC3)c2)nn2c(C(=O)NC3C[C@@H]3F)cnc12` (stereo partly drawn) [Example K364], the DC50 on TYK2 [1], on TYK2 [2] (setting [4]) and at TYK2 [3] was more than 100 nM throughout.
Take `Cn1c(=O)n(C2CCC(=O)NC2=O)c2ccc(-c3ccc(CCCNc4cc(Nc5cccn(-c6ccccn6)c5=O)nn5c(C(=O)N[C@@H]6C[C@@H]6F)cnc45)nc3)cc21` (stereo partly drawn) [Example K365]: the DC50 on TYK2 [1], at TYK2 [2] (setting [4]) and on TYK2 [3] was more than 100 nM each time.
For `Cn1c(=O)n(C2CCC(=O)NC2=O)c2ccc(C3CCN(CCCNc4cc(Nc5cccn(-c6ccccn6)c5=O)nn5c(C(=O)N[C@@H]6C[C@@H]6F)cnc45)CC3)cc21` (stereo partly drawn) [Example K366], the DC50 on TYK2 [1], on TYK2 [2] (setting [4]) and at TYK2 [3] was more than 100 nM throughout.
Regarding `Cn1c(=O)n(C2CCC(=O)NC2=O)c2ccc(CN3CCC(Nc4cc(Nc5cccn(-c6ccccn6)c5=O)nn5c(C(=O)N[C@@H]6C[C@@H]6F)cnc45)CC3)cc21` (stereo partly drawn) [Example K367], the DC50 on TYK2 [1], on TYK2 [2] (setting [4]) and at TYK2 [3] was more than 100 nM throughout.
With `CNc1cc(Nc2cccn(-c3ccc(C(=O)N(C)CCCOCCCc4cccc5c4n(C)c(=O)n5C4CCC(=O)NC4=O)cn3)c2=O)nn2c(C(=O)N[C@@H]3C[C@@H]3F)cnc12` (stereo partly drawn) [Example K369], the DC50 at TYK2 [1] is 1 to 10 nM; on TYK2 [2] (setting [4]), more than 100 nM; at TYK2 [3], more than 100 nM.
As to `CNc1cc(Nc2cccn(-c3ccc(C(=O)NCc4ccc(N5CCC(N6CCC(c7ccc8c(c7)n(C)c(=O)n8C7CCC(=O)NC7=O)C6)CC5)cc4)cn3)c2=O)nn2c(C(=O)N[C@@H]3C[C@@H]3F)cnc12` (stereo partly drawn) [Example K370], the DC50 on TYK2 [1] was more than 100 nM; on TYK2 [2] (setting [4]), less than 1 nM; at TYK2 [3], less than 1 nM.
For the molecule `CNc1cc(Nc2cccn(-c3ccc(C(=O)N4CCCC5(C4)CN(c4ncc(C#Cc6ccc7c(c6)n(C)c(=O)n7C6CCC(=N)NC6=O)cn4)C5)cn3)c2=O)nn2c(C(=O)N[C@@H]3C[C@@H]3F)cnc12` (stereo partly drawn) [Example K371], the DC50 at TYK2 [1] is more than 100 nM; on TYK2 [2] (setting [4]) it was 1 to 10 nM; on TYK2 [3], more than 100 nM.
Regarding `CNc1cc(Nc2cccn(-c3ccc(C(=O)N4CC5(C4)CN(c4ccc(-c6ccc7c(c6)n(C)c(=O)n7C6CCC(=O)NC6=O)cc4)C5)cn3)c2=O)nn2c(C(=O)N[C@@H]3C[C@@H]3F)cnc12` (stereo partly drawn) [Example K372], the DC50 is more than 100 nM at TYK2 [1], less than 1 nM on TYK2 [2] (setting [4]) and more than 100 nM on TYK2 [3].
Regarding `CNc1cc(Nc2cccn(-c3ccc(C(=O)N4CCN(CC5CC(c6ccc(-c7ccc8c(c7)n(C)c(=O)n8C7CCC(=O)NC7=O)cc6)C5)CC4)cn3)c2=O)nn2c(C(=O)N[C@@H]3C[C@@H]3F)cnc12` (stereo partly drawn) [Example K373], the DC50 on TYK2 [1] is more than 100 nM; at TYK2 [2] (setting [4]), less than 1 nM; on TYK2 [3] it was more than 100 nM.
Consider `CNc1cc(Nc2cccn(-c3ccc(C(=O)N4CCN(CC5CCN(c6ccc(-c7ccc8c(c7)n(C)c(=O)n8C7CCC(=O)NC7=O)cc6)CC5)CC4)cn3)c2=O)nn2c(C(=O)N[C@@H]3C[C@@H]3F)cnc12` (stereo partly drawn) [Example K374], for which the values for the DC50 on TYK2 [1], at TYK2 [2] (setting [4]) and at TYK2 [3] were more than 100 nM, less than 1 nM and more than 100 nM, respectively.
In the case of `CNc1cc(Nc2cccn(-c3ccc(C(=O)N4CCC(CN5CCC56CN(c5ncc(C#Cc7ccc8c(c7)n(C)c(=O)n8C7CCC(=O)NC7=O)cn5)C6)CC4)cn3)c2=O)nn2c(C(=O)N[C@@H]3C[C@@H]3F)cnc12` (stereo partly drawn) [Example K375], the 50% degradation concentration (DC50) was more than 100 nM at TYK2 [1], 1 to 10 nM on TYK2 [2] (setting [4]) and more than 100 nM on TYK2 [3].
In the case of `CNc1cc(Nc2cccn(-c3ccc(C(=O)N4CCC45CN(c4ncc(C#Cc6ccc7c(c6)n(C)c(=O)n7C6CCC(=O)NC6=O)cn4)C5)cn3)c2=O)nn2c(C(=O)N[C@@H]3C[C@@H]3F)cnc12` (stereo partly drawn) [Example K376], the DC50 at TYK2 [1] was more than 100 nM; at TYK2 [2] (setting [4]), 10 to 100 nM; at TYK2 [3] it was more than 100 nM.
In the case of `CNc1cc(Nc2cccn(-c3ccc(C(=O)N4CCN([C@H]5CC[C@@H](c6ccc(-c7ccc8c(c7)n(C)c(=O)n8C7CCC(=O)NC7=O)cc6)CC5)CC4)cn3)c2=O)nn2c(C(=O)N[C@@H]3C[C@@H]3F)cnc12` (stereo partly drawn) [Example K377], the figures for the DC50 at TYK2 [1], on TYK2 [2] (setting [4]) and on TYK2 [3] were more than 100 nM, less than 1 nM and more than 100 nM, respectively.
`CNc1cc(Nc2cccn(-c3ccc(C(=O)N4CCN(c5ccc(-c6ccc7c(c6)n(C)c(=O)n7C6CCC(=O)NC6=O)cn5)C(=O)C4)cn3)c2=O)nn2c(C(=O)N[C@@H]3C[C@@H]3F)cnc12` (stereo partly drawn) [Example K378]: the half-maximal degradation concentration (DC50) was more than 100 nM on TYK2 [1], less than 1 nM at TYK2 [2] (setting [4]) and more than 100 nM on TYK2 [3].
Turning to `CNc1cc(Nc2cccn(-c3ccc(C(=O)N4CCN(CCCOCCc5ccc(-c6ccc7c(c6)n(C)c(=O)n7C6CCC(=O)NC6=O)cc5)CC4)cn3)c2=O)nn2c(C(=O)N[C@@H]3C[C@@H]3F)cnc12` (stereo partly drawn) [Example K379], the DC50 on TYK2 [1] is more than 100 nM; on TYK2 [2] (setting [4]), less than 1 nM; on TYK2 [3], more than 100 nM.
On to `CNc1cc(Nc2cccn(-c3ccc(C(=O)N4CCN([C@H]5CC[C@H](c6ccc(-c7ccc8c(c7)n(C)c(=O)n8C7CCC(=O)NC7=O)cc6)CC5)CC4)cn3)c2=O)nn2c(C(=O)N[C@@H]3C[C@@H]3F)cnc12` (stereo partly drawn) [Example K380], for which the DC50 on TYK2 [1], at TYK2 [2] (setting [4]) and at TYK2 [3] was less than 1 nM each time.
Consider `CNc1cc(Nc2cccn(-c3ccc(C(=O)N4CCC(N5CC(N6CCN(c7ccc8c(c7)n(C)c(=O)n8C7CCC(=O)NC7=O)CC6)C5)CC4)cn3)c2=O)nn2c(C(=O)N[C@@H]3C[C@@H]3F)cnc12` (stereo partly drawn) [Example K381], for which the DC50 was more than 100 nM at TYK2 [1], less than 1 nM on TYK2 [2] (setting [4]) and less than 1 nM at TYK2 [3].
Take `CNc1cc(Nc2cccn(-c3ccc(C(=O)N4CC5(C4)CN(c4ncc(C#Cc6ccc7c(c6)n(C)c(=O)n7C6CCC(=O)NC6=O)cn4)C5)cn3)c2=O)nn2c(C(=O)NC3CC3F)cnc12` (stereo not drawn) [Example K382]: the DC50 at TYK2 [1] is more than 100 nM; on TYK2 [2] (setting [4]), less than 1 nM; at TYK2 [3], more than 100 nM.
Turning to `CNc1cc(Nc2cccn(-c3ccc(C(=O)N4CC5(CCN(c6ccc(-c7ccc8c(c7)n(C)c(=O)n8C7CCC(=O)NC7=O)cn6)CC5)C4)cn3)c2=O)nn2c(C(=O)N[C@@H]3C[C@@H]3F)cnc12` (stereo partly drawn) [Example K383], the DC50 on TYK2 [1] was less than 1 nM; on TYK2 [2] (setting [4]), less than 1 nM; on TYK2 [3], more than 100 nM.
